Marks after values point to notes of the source that are not given here.
How the values were obtained:
SK-OV-3 = experiment: MTT viability assay in SK-OV-3 ovarian carcinoma cells; assay type: cell-based, human; settings: 72 h, mean ± SD of three independent experiments
Description: (§1) Cells were seeded (2 × 10^4 cells/well for HCT116, HCT116/OxR, 3 × 10^4 cells/well for HCT116 p53KO, 4 × 10^4 cells/well for MES-OV, SK-OV-3, and their respective CBP resistant counterparts) in 100 μL/well in 96-well plates and allowed to attach for 24 h at 37 °C and 5% CO2. Compounds were first dissolved in DMSO to a 10 mM stock solution and then further diluted in a growth medium (DMSO concentration <1%). After 24 h, cells were treated with 100 μL of different drugs dilutions in triplicates with the final concentrations of 0, 0.01, 0.05, 0.075, 0.1, 0.5, 0.75, 1, 2.5, 5, 7.5, and 10 μM depending on the compound and the cell line.

MES-OV/CBP = experiment: MTT viability assay in carboplatin-resistant MES-OV/CBP cells; assay type: cell-based, human; settings: 72 h; for IC50: MTT, carboplatin-resistant subline, mean ± SD; for relative resistance (IC50 MES-OV/CBP divided by IC50 MES-OV): resistant subline vs parental line
Description: as §1

MES-OV = experiment: MTT viability assay in MES-OV ovarian carcinoma cells; assay type: cell-based, human; settings: for IC50 / cancer cells killed at lowest tested concentration: 72 h; for IC50: MTT, mean ± SD; for cancer cells killed at lowest tested concentration: MES-OV, 0.05 μM
Description: as §1

SK-OV-3/CBP = experiment: MTT viability assay in carboplatin-resistant SK-OV-3/CBP cells; assay type: cell-based, human; settings: 72 h; for IC50: MTT, carboplatin-resistant subline, mean ± SD; for relative resistance (IC50 SK-OV-3/CBP divided by IC50 SK-OV-3): resistant subline vs parental line
Description: as §1

MES-OV cells [1] = experiment: ROS detection by DCF-DA flow cytometry in MES-OV; assay type: cell-based, human; settings: 24 h, 2.5 μM
Description: Cells were seeded 5 × 10^5 cells/mL in six-well plates. After 24 h treatment with the indicated concentration, cells were incubated with 10 μM 2′,7′-dichlorofluorescein diacetate (DCFH-DA, Sigma-Aldrich) in Hank’s balanced salt solution for 1 h at 37 °C. Subsequently, flow cytometry (with BD LSR Fortessa instrument, BD Biosciences, Franklin Lakes, NJ, USA) was performed to measure the median fluorescence signal of 20,000 single cells per sample. FlowJo (BD Biosciences, San Jose, CA, USA) and GraphPad Prism software (GraphPad Software Inc., San Diego, CA, USA) were to analyze the data.

recombinant rat TrxR = biological target: T1, recombinant rat TrxR (Rattus norvegicus, UniProt O89049); experiment: Inhibition of mammalian TrxR (microplate reader-based DTNB assay); assay type: biochemical; settings: cell-free assay
T1 construct: purchased Cayman Chemical
T1 sequence (O89049 1-499): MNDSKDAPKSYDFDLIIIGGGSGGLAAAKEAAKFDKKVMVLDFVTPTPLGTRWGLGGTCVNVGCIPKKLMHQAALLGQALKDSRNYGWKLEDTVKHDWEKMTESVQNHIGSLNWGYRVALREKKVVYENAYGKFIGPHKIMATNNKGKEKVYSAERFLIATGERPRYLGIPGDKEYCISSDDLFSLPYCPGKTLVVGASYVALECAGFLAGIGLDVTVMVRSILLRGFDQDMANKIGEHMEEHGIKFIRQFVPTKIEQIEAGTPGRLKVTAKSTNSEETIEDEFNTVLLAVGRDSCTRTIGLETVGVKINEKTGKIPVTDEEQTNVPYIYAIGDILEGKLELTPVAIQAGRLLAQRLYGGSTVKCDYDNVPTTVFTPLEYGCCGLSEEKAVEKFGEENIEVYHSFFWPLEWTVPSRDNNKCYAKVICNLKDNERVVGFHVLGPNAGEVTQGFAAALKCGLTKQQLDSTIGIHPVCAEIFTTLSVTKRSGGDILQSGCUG
Description: To determine the inhibition of mammalian TrxR, an established microplate reader-based assay was performed. For this purpose, commercially available recombinant rat TrxR (from Cayman Chemical) was used and diluted with distilled water to achieve a concentration of 0.12 U mL^–1. The compounds were freshly dissolved as stock solutions in DMSO. Aliquots (25 μL) of the enzyme solution and 25 μL of potassium phosphate buffer (pH 7.0) containing the compounds in graded concentrations (1% DMSO) were mixed. Positive controls were composed of 25 μL aliquots of the enzyme solution mixed with 25 μL 1% DMSO in buffer solution (no compounds). The final concentration of DMSO was 0.5% v/v in all samples. The blank solution was the highest used concentration of the compound in 0.5% DMSO in buffer solution (no enzyme). All resulting solutions were incubated with moderate shaking for 75 min at 37 °C in a 96-well plate. […] After proper mixing, the formation of 2-nitro-5-thiobenzoate (5-TNB) was monitored with a microplate reader at 405 nm 10 times in 35 s intervals for about 6 min. The increase in 5-TNB concentration over time followed a linear trend, and the enzymatic activities were calculated as the slopes (increase in absorbance per second) thereof. […] For the absorption measurements in the enzyme assay, a PerkinElmer 2030 Multilabel Reader VICTORTMX4 was used.

MES-OV cells [2] = experiment: Mitochondrial membrane potential by JC-1 stain (flow cytometry); assay type: cell-based, human; settings: 24 h
Description: Cells were seeded in a density of (2–4) × 10^5 cells/well in six-well plates and in 1 mL culture medium containing 10% FBS. After 24 h recovery, cells were treated with the indicated compounds and concentrations. Next, the supernatant was collected followed by trypsinization of the cells and centrifugation at 300g for 5 min. In the following protocols, cells were stained with annexin V (AV) and propidium iodide (PI) for cell death analysis, with only PI for cell cycle analysis, or with 10 μg mL^–1 JC-1 for evaluation of the mitochondrial membrane potential as previously described.[54],[55]

HCT116 WT/OxR = experiment: MTT viability assay in oxaliplatin-resistant HCT116 WT/OxR cells; assay type: cell-based, human; settings: 72 h; for relative resistance (IC50 HCT116 WT/OxR divided by IC50 HCT116 WT): resistant subline vs parental line; for IC50: MTT, oxaliplatin-resistant subline, mean ± SD
Description: as §1

MES-OV cells [3] = experiment: Phase-contrast microscopy of cytoplasmic vacuoles; assay type: cell-based, human; settings: 6 and 24 h treatment
Description: Cells were seeded 5 × 10^5/well in six-well plates after 24 h recovery treatment with compounds 1, 4, and 7 was performed with the indicated concentrations. After 6 and 24 h, phase-contrast images of the cells were taken with a Zeiss Primovert microscope (20× magnification). To determinate the percentage of vacuolated cells, images (three images each condition) were analyzed by ImageJ, and vacuolated cells were counted.

[4] = Stability in PBS by LC-ESI(+)-HRMS/MS; assay type: physicochemical; settings: 80 μM in PBS, monitored 48 h
Description: For the stability evaluation in PBS, 10 mM solutions of complexes 1, 4, and 7 were first prepared in DMSO. Two microliters of this solution were then added to PBS (250 μL) for a total concentration of 80 μM. Following centrifugation for 10 min at 3000 rpm, the resulting solutions were monitored by LC-ESI(+)-MS and LC-ESI(+)-HRMS for a period of 48 h.

MES-OV cells [5] = experiment: TEM analysis of subcellular morphology; assay type: cell-based, human; settings: 24 h treatment
Description: MES-OV Cells were seeded (8 × 10^5 cells/mL) in […] in six-well plates. After 24 h, cells were treated with the selected compounds at the indicated concentration for another 24 h. Afterward, cells were collected, pelleted, and fixed in a solution of 2.5% glutaraldehyde and 2% paraformaldehyde in 0.1 M cacodylate buffer (pH 7.4) for 2 h at room temperature. Samples were subsequently washed 3 × 10 min in cacodylate buffer and postfixed in 1% osmium tetroxide for 1 h. After 3 × 10 min washing in cacodylate buffer, samples were dehydrated in an ethanol series (30–100%, 10 min each) and pure acetone (2 × 10 min) and gradually embedded in Epon 812 resin (Serva). Sections (40–50 nm) were prepared with a Leica UC7 ultramicrotome, mounted on copper mesh grids, and contrasted with 1% uranyl acetate (7 min) and 3% lead citrate (3 min). Imaging was performed with a Tecnai G2 20 transmission electron microscope at 80 kV equipped with an FEI Eagle 4K CCD camera (Center for Anatomy and Cell Biology). Image processing was performed in Fiji[57] using the CLAHE filter (enhance local contrast).

F331 = experiment: MTT viability assay in nonmalignant fibroblasts F331; assay type: cell-based, human; settings: 72 h, mean ± SD
HCT116 p53KO = experiment: MTT viability assay in p53-deleted HCT116 p53KO cells; assay type: cell-based, human; settings: 72 h, p53-deleted subclone, mean ± SD
Description: as §1

HCT116 WT = experiment: MTT viability assay in HCT116 WT colon carcinoma cells; assay type: cell-based, human; settings: 72 h, mean ± SD
Description: as §1

Compound | IC50 (SK-OV-3) | IC50 (MES-OV/CBP) | IC50 (MES-OV) | IC50 (SK-OV-3/CBP) | relative resistance (IC50 SK-OV-3/CBP divided by IC50 SK-OV-3) (SK-OV-3/CBP) | relative resistance (IC50 HCT116 WT/OxR divided by IC50 HCT116 WT) (HCT116 WT/OxR) | IC50 (F331) | IC50 (HCT116 p53KO) | IC50 (HCT116 WT/OxR) | IC50 (HCT116 WT) | other results
N.N.O=C([O-])C1(C(=O)[O-])CCC1.[Pt+2] [carboplatin, reference compound] | 56500 ± 15400 nM | 94700 ± 9240 nM | 44300 ± 7090 nM | 89900 ± 5640 nM | 1.6* | – | – | – | – | – | –
O=S(=O)([O-])C(F)(F)F.[Ag+].c1ccc(-c2ccccn2)nc1.c1ccc(P(CCP(c2ccccc2)c2ccccc2)c2ccccc2)cc1 [Compound 4, [Ag(2,2′-bipy)(dppe)][CF3SO3]] | – | – | – | – | 0.8^n.s. | 0.9^n.s. | – | – | – | – | ROS levels increase (peak) (MES-OV cells [1]): ~5 fold; TrxR inhibition strength relative to 7 (recombinant rat TrxR): 10 fold; cells with mitochondrial depolarization (low Δψ fraction) (MES-OV cells [2]; 10 μM): 50%; cytoplasmic vacuole formation (phase contrast) (MES-OV cells [3]): induced pronounced cytoplasmic vacuoles only after 24 h incubation; stability in PBS [4]: immediate rearrangement of the ligands to afford a mixture between AgP2 and AgN2 species; cancer cells killed at lowest tested concentration (MES-OV): more than 50%; vacuole diameter (TEM) (MES-OV cells [5]): 300–1500 nm
[Ag(4,4′-CH2OH-2,2′-bipy)(dppe)][CF3SO3] [Compound 6] | 6500 ± 1660 nM | < 50 nM | < 50 nM | 5520 ± 2200 nM | 0.8^n.s. | 0.8^n.s. | > 10000 nM | 490 ± 140 nM | 540 ± 110 nM | 640 ± 60 nM | cancer cells killed at lowest tested concentration (MES-OV): more than 50%
[Ag(4,4′-CH3-2,2′-bipy)(dppe)][CF3SO3] [Compound 5] | 6860 ± 1550 nM | 60 ± 30 nM | 60 ± 30 nM | 6500 ± 1290 nM | 0.9^n.s. | 1.0^n.s. | 8520 ± 900 nM | 430 ± 50 nM | 750 ± 80 nM | 740 ± 60 nM | relative resistance (IC50 MES-OV/CBP divided by IC50 MES-OV) (MES-OV/CBP): 1.0^n.s.
O=S(=O)([O-])C(F)(F)F.OCc1ccnc(-c2cc(CO)ccn2)c1.[Ag+].c1ccc(P(c2ccccc2)c2ccccc2)cc1 [Compound 3, [Ag(4,4′-CH2OH-2,2′-bipy)(PPh3)][CF3SO3]] | – | – | – | – | 1.4^n.s. | 0.7^n.s. | – | – | – | – | relative resistance (IC50 MES-OV/CBP divided by IC50 MES-OV) (MES-OV/CBP): 0.8^n.s.
[Ag(dppe)2][CF3SO3] [Compound 7] | – | 50 ± 20 nM | < 50 nM | 5970 ± 1420 nM | – | 1.1^n.s. | 5780 ± 500 nM | 340 ± 10 nM | 380 ± 50 nM | 350 ± 40 nM | ROS levels increase (peak) (MES-OV cells [1]): ~5 fold; cells with mitochondrial depolarization (low Δψ fraction) (MES-OV cells [2]; 1 μM): 30%; cells with mitochondrial depolarization (low Δψ fraction) (MES-OV cells [2]; 10 μM): 90%; cytoplasmic vacuole formation (phase contrast) (MES-OV cells [3]): formation of cytoplasmic vacuoles near the nucleus within the cytoplasm was observed; stability in PBS [4]: stable under these conditions; activity relative to 4 after 24 h (MES-OV; 24 h MTT (Table S2)): about twofold more active than 4; diameter of big vacuoles (TEM) (MES-OV cells [5]): up to 7.5 μm
Cc1ccnc(-c2cc(C)ccn2)c1.O=S(=O)([O-])C(F)(F)F.[Ag+].c1ccc(P(c2ccccc2)c2ccccc2)cc1 [Compound 2, [Ag(4,4′-CH3-2,2′-bipy)(PPh3)][CF3SO3]] | – | – | – | – | 1.5^n.s. | 0.9^n.s. | – | – | – | – | –
O=C1[O][Pt]2([NH][C@@H]3CCCC[C@H]3[NH]2)[O]C1=O [oxaliplatin, reference compound] | – | – | – | – | – | >14** | – | 2370 ± 450 nM | > 10000 nM | 720 ± 180 nM | –

From PMC11056982, “Paraptotic Cell Death as an Unprecedented Mode of Action Observed for New Bipyridine-Silver(I) Compounds Bearing Phosphane Coligands” (Journal of Medicinal Chemistry, 2024)
